Assay results from article PMC10244169, “Psychedelics promote plasticity by directly binding to BDNF receptor TrkB” (Nature Neuroscience, 2023).

How the values were obtained:
[1] = system: dendritic arbor complexity of neuronal cultures; experiment: Dendritogenesis (Sholl analysis) in neuronal cultures (WT and Y433F^+/−); assay type: cell-based, mouse
Method: In a separate set of experiments to study the effects of extracellular BDNF and 5-HT2A activation, cultures were also pretreated for 10 min with TrkB.FC (200 ng ml^−1) or M100907 (100 nM), respectively. Similar to treatment with the psychedelics, TrkB.FC and M100907 pretreatments were administered in cumulative doses and remained in the medium for the rest of the experiment. At DIV7, neurons were pre-incubated for 1 h with […] MgCl2 to prevent excitotoxicity, then neurons were transfected for the heterologous expression of mCherry. To minimize any possible interference of the transfection protocol upon the drug effect, transfection was done in the morning while treatment with psychedelics was always added in the evening. Twenty-four hours after transfection, neurons were fixed with 4% PFA for 20 min at room temperature, washed in PBS-T, blocked for 30 min with 3% BSA in PBS-T and incubated with chicken anti-MAP2 (Abcam, ab5392; 1:5,000, 1 h, room temperature). Then, coverslips were washed in PBS-T and incubated with Alexa Fluor 647-conjugated antibody goat anti-chicken (Invitrogen, A-21449; 1:1,000, 1 h, room temperature). Next, coverslips were washed in PBS-T and MilliQ water, and mounted in Dako fluorescence mounting medium (Agilent, S302380-2). Ten optical sections with a Z-step of 1.3 μm were acquired using a Zeiss LSM 710 confocal microscope with a LCI Plan/Neofluar 25×/0.8 lmm Korr DIC M27 objective. In the mCherry channel, the center of the soma was manually assigned and the number of dendritic intersections at fixed distances (every 5 μm) from the soma was automatically counted using the Sholl analysis plugin of ImageJ.

GFP-tagged TrkB Y433F = biological target: T1, GFP-tagged TrkB Y433F (Rattus norvegicus, UniProt Q63604, Y433F); experiment: Microscale thermophoresis (MST) in HEK293T lysates; assay type: binding
T1 construct: expressed in transfected cells; host or cells: HEK293T
T1 sequence (Q63604 32-821 Y433F): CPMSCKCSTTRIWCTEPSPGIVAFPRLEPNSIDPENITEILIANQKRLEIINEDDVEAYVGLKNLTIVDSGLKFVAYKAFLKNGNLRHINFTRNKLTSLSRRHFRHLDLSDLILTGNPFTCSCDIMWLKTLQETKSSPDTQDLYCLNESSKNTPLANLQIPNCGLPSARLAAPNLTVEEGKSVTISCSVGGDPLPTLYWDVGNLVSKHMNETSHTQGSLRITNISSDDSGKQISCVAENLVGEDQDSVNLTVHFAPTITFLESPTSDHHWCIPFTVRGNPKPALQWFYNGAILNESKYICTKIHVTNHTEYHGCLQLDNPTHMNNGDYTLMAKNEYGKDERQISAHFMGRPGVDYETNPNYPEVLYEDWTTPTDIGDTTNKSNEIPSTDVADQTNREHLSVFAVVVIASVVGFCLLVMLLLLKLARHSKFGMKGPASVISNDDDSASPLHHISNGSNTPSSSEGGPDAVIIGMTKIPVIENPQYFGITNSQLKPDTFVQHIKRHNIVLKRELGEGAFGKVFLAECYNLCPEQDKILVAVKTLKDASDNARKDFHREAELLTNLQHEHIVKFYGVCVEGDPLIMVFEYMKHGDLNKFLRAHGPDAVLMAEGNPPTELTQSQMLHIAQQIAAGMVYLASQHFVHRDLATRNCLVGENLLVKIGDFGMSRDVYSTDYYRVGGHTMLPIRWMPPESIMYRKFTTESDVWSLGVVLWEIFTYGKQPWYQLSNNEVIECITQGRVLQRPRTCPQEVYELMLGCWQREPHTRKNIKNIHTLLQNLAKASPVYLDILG
Method: (§1) MST experiments were performed using the Monolith NT.115 (Blue/Red) instrument (NanoTemper Technologies). Lysates of HEK293T cells expressing GFP-tagged TrkB (WT, Y433F, TrkA.TM) were lysed, vortexed, sonicated and centrifuged 24 h after transient transfection and used as a source of fluorescently labeled TrkB, similarly to previously described protocols[11],[45]–[47]. The advantage of this approach is the possibility of studying the proteins in close-to-native conditions. However, the presence of other proteins, lipids, nucleic acids and other components of crude cell lysates can alter the diffusion of biomolecules and therefore binding affinities. High viscosity and background signal typically results in the affinity values being orders of magnitude […] than those of more traditional binding assays. […] The measurements were performed in premium coated capillaries (NanoTemper Technologies, MO-K025) using a LED source with 470 nm and 50% infrared-laser power at 25 °C. Analysis was performed using MO Affinity Analysis 2.3. Results were fitted to specific binding with Hill slope equations from GraphPad Prism 9.2.

GFP-tagged TrkA.TM = experiment: Microscale thermophoresis (MST) in HEK293T lysates; assay type: binding
Method: as §1

eGFP-tagged TrkB (WT) = biological target: T2, eGFP-tagged TrkB (WT) (Rattus norvegicus, UniProt Q63604); experiment: Microscale thermophoresis (MST) in HEK293T lysates; assay type: binding
T2 construct: expressed in transfected cells; host or cells: HEK293T
T2 sequence (Q63604 32-821): as the sequence (Q63604 32-821 Y433F) above, with F402Y counted along it
Method: as §1

mice = experiment: Head-twitch response; assay type: in vivo, mouse; set-up: key to Mean, figure 7c (head-twitch response) / Mean Diff., figure 7d, Vehicle:Saline vs. Vehicle:LSD / Mean Diff., figure 7d, Vehicle:Saline vs. M100907:Saline / Mean Diff., figure 7d, M100907:Saline vs. M100907:LSD / Mean, figure 7d (head-twitch response) / Mean Diff., figure 7c, WT:Saline vs. WT:LSD / Head-twitch response, Mean: head twitch counts (scored every 2 min over 30 min); conditions: for Head-twitch response, Mean: ext fig 7d
Method: Immediately after the last injection, the animals were placed inside a transparent chamber and their activity video-recorded for 30 min. Similarly to previous studies, head twitches were scored as counts every 2 min by observers blinded to treatments and genotypes.

**Q.** What does the source list for `CN(C)CCc1c[nH]c2cccc(O)c12` [PSI, psilocin]?
**A.** 6g: Mean (dendritogenesis, Sholl analysis) ([1]; WT neurons, vehicle mean 32.96): 62.5; 6g: Mean Diff. (vehicle vs. treatment), Bonferroni's multiple comparisons test ([1]; WT:vehicle minus WT:treatment): -29.54; 6g: Mean (dendritogenesis, Sholl analysis) ([1]; Y433F+/- neurons, vehicle mean 44.44): 31.05; 6g: Mean Diff. (vehicle vs. treatment), Bonferroni's multiple comparisons test ([1]; Y433F+/-:vehicle minus Y433F+/-:treatment): 13.39; dendritic arbor complexity ([1]; cultures from WT mice): enhance dendritic arbor complexity; dendritic arbor complexity ([1]; cultures from Y433F^+/− mice): not Y433F^+/− mice; Sholl analysis, Mean at distance from soma ([1]; fig 6h, distance from soma 25 µm): 3.05; Sholl analysis, Mean at distance from soma ([1]; fig 6h, distance from soma 30 µm): 2.75; Sholl analysis, Mean at distance from soma ([1]; fig 6h, distance from soma 35 µm): 2.15; Sholl analysis, Mean at distance from soma ([1]; fig 6h, distance from soma 40 µm): 1.55; Sholl analysis, Mean at distance from soma ([1]; fig 6h, distance from soma 45 µm): 1.35; Sholl analysis, Mean at distance from soma ([1]; fig 6h, distance from soma 50 µm): 1.3; Sholl analysis, Mean at distance from soma ([1]; fig 6h, distance from soma 55 µm): 0.95; Sholl analysis, Mean at distance from soma ([1]; fig 6h, distance from soma 60 µm): 0.8; Sholl analysis, Mean at distance from soma ([1]; fig 6h, distance from soma 65 µm): 0.75; Sholl analysis, Mean at distance from soma ([1]; fig 6h, distance from soma 70 µm): 0.7; Sholl analysis, Mean at distance from soma ([1]; fig 6h, distance from soma 75 µm): 0.55; Sholl analysis, Mean at distance from soma ([1]; fig 6h, distance from soma 80 µm): 0.45; Sholl analysis, Mean at distance from soma ([1]; fig 6h, distance from soma 85 µm): 0.45; Sholl analysis, Mean at distance from soma ([1]; fig 6h, distance from soma 90 µm): 0.4; Sholl analysis, Mean at distance from soma ([1]; fig 6h, distance from soma 95 µm): 0.65; Sholl analysis, Mean at distance from soma ([1]; fig 6h, distance from soma 100 µm): 0.55; 6h: Mean (Sholl analysis) ([1]; first 6h table (N as WT), distance from soma 10 µm): 6; 6h: Mean (Sholl analysis) ([1]; first 6h table (N as WT), distance from soma 15 µm): 7.15; 6h: Mean (Sholl analysis) ([1]; first 6h table (N as WT), distance from soma 20 µm): 7.85; 6h: Mean (Sholl analysis) ([1]; first 6h table (N as WT), distance from soma 25 µm): 6.65; 6h: Mean (Sholl analysis) ([1]; first 6h table (N as WT), distance from soma 30 µm): 5.65; 6h: Mean (Sholl analysis) ([1]; first 6h table (N as WT), distance from soma 35 µm): 4.5; 6h: Mean (Sholl analysis) ([1]; first 6h table (N as WT), distance from soma 40 µm): 3.6; 6h: Mean (Sholl analysis) ([1]; first 6h table (N as WT), distance from soma 45 µm): 2.75; 6h: Mean (Sholl analysis) ([1]; first 6h table (N as WT), distance from soma 50 µm): 2.6; 6h: Mean (Sholl analysis) ([1]; first 6h table (N as WT), distance from soma 55 µm): 2.5; 6h: Mean (Sholl analysis) ([1]; first 6h table (N as WT), distance from soma 60 µm): 2.35; 6h: Mean (Sholl analysis) ([1]; first 6h table (N as WT), distance from soma 65 µm): 1.75; 6h: Mean (Sholl analysis) ([1]; first 6h table (N as WT), distance from soma 70 µm): 1.7; 6h: Mean (Sholl analysis) ([1]; first 6h table (N as WT), distance from soma 75 µm): 1.35; 6h: Mean (Sholl analysis) ([1]; first 6h table (N as WT), distance from soma 80 µm): 1.15; 6h: Mean (Sholl analysis) ([1]; first 6h table (N as WT), distance from soma 85 µm): 1.1; 6h: Mean (Sholl analysis) ([1]; first 6h table (N as WT), distance from soma 90 µm): 1.3; 6h: Mean (Sholl analysis) ([1]; first 6h table (N as WT), distance from soma 95 µm): 1.05; 6h: Mean (Sholl analysis) ([1]; first 6h table (N as WT), distance from soma 100 µm): 1.5; 6h: Mean (Sholl analysis) ([1]; second 6h table (N as Y433F), distance from soma 10 µm): 4.8; 6h: Mean (Sholl analysis) ([1]; second 6h table (N as Y433F), distance from soma 15 µm): 4.05; 6h: Mean (Sholl analysis) ([1]; second 6h table (N as Y433F), distance from soma 20 µm): 3.8; Bmax (best-fit, 1c/1d) (GFP-tagged TrkB Y433F; MST Y433F): 49.04; h (best-fit, 1c/1d) (GFP-tagged TrkB Y433F; MST Y433F): 1.151; binding by MST (GFP-tagged TrkB Y433F; Y433F): but not to Y433F; Bmax (best-fit, 1c/1d) (GFP-tagged TrkA.TM): 151.3; h (best-fit, 1c/1d) (GFP-tagged TrkA.TM): 1.115; h (best-fit, 1c/1d) (eGFP-tagged TrkB (WT); MST WT): 0.8209; Bmax (best-fit, 1c/1d) (eGFP-tagged TrkB (WT); MST WT, fit ambiguous): ~ 268422; binding by MST (eGFP-tagged TrkB (WT); native (WT) TrkB): directly bind to native TrkB

**Q.** Which results are given for `COc1cccc([C@H](O)C2CCN(CCc3ccc(F)cc3)CC2)c1OC` [M100907]?
**A.** effect of pretreatment on LSD effects on dendritogenesis ([1]; TrkB.FC 200 ng ml^−1 or M100907 100 nM): not M100907 prevented LSD effects on dendritogenesis; dendritic arbor complexity, Mean Diff. (Vehicle:vehicle vs. group) ([1]; fig 6i, Bonferroni's multiple comparisons test): -9.087; dendritic arbor complexity, group mean (Mean 2) ([1]; fig 6i, treatment:pretreatment groups, Vehicle:vehicle mean 69.72): 78.81; Sholl analysis, Mean at distance from soma ([1]; fig 6j, distance from soma 10 µm): 6.619; Sholl analysis, Mean at distance from soma ([1]; fig 6j, distance from soma 15 µm): 6.476; Sholl analysis, Mean at distance from soma ([1]; fig 6j, distance from soma 20 µm): 6.048; Sholl analysis, Mean at distance from soma ([1]; fig 6j, distance from soma 25 µm): 6.333; Sholl analysis, Mean at distance from soma ([1]; fig 6j, distance from soma 30 µm): 5.286; Sholl analysis, Mean at distance from soma ([1]; fig 6j, distance from soma 35 µm): 4.524; Sholl analysis, Mean at distance from soma ([1]; fig 6j, distance from soma 40 µm): 4.619; Sholl analysis, Mean at distance from soma ([1]; fig 6j, distance from soma 45 µm): 3.714; Sholl analysis, Mean at distance from soma ([1]; fig 6j, distance from soma 50 µm): 3.667; Sholl analysis, Mean at distance from soma ([1]; fig 6j, distance from soma 55 µm): 3.571; Sholl analysis, Mean at distance from soma ([1]; fig 6j, distance from soma 60 µm): 3.381; Sholl analysis, Mean at distance from soma ([1]; fig 6j, distance from soma 65 µm): 3.238; Sholl analysis, Mean at distance from soma ([1]; fig 6j, distance from soma 70 µm): 2.905; Sholl analysis, Mean at distance from soma ([1]; fig 6j, distance from soma 75 µm): 2.857; Sholl analysis, Mean at distance from soma ([1]; fig 6j, distance from soma 80 µm): 3.429; Sholl analysis, Mean at distance from soma ([1]; fig 6j, distance from soma 85 µm): 3.429; Sholl analysis, Mean at distance from soma ([1]; fig 6j, distance from soma 90 µm): 3.381; Sholl analysis, Mean at distance from soma ([1]; fig 6j, distance from soma 95 µm): 2.619; Sholl analysis, Mean at distance from soma ([1]; fig 6j, distance from soma 100 µm): 2.714; effect on LSD-induced head-twitch response (mice; M100907 0.5 mg kg^−1, 30 min before LSD): blocked; Mean, figure 7d (head-twitch response) (mice; M100907:Saline group): 0.2; Head-twitch response, Mean (mice; Time (min) 2): 0.2; Head-twitch response, Mean (mice; Time (min) 4): 0; Head-twitch response, Mean (mice; Time (min) 6): 0; Head-twitch response, Mean (mice; Time (min) 8): 0; Head-twitch response, Mean (mice; Time (min) 10): 0; Head-twitch response, Mean (mice; Time (min) 12): 0; Head-twitch response, Mean (mice; Time (min) 14): 0; Head-twitch response, Mean (mice; Time (min) 16): 0; Head-twitch response, Mean (mice; Time (min) 18): 0; Head-twitch response, Mean (mice; Time (min) 20): 0; Head-twitch response, Mean (mice; Time (min) 22): 0; Head-twitch response, Mean (mice; Time (min) 24): 0; Head-twitch response, Mean (mice; Time (min) 26): 0; Head-twitch response, Mean (mice; Time (min) 28): 0; Head-twitch response, Mean (mice; Time (min) 30): 0; Mean Diff., figure 7d, Vehicle:Saline vs. M100907:Saline (mice; vehicle minus M100907, Bonferroni's multiple comparisons test): 2.2
